# Patent US4680284A, “Modified phenylalanine peptidylaminodiols” (Abbott Laboratories, priority 1986, dated 1987)
# pIC50: −log10 of the molar value.
# Target: T1, human renal renin (Homo sapiens, UniProt P00797)
# T1 construct: human renal renin, free from acid proteolytic activity; from tissue
# T1 sequence (P00797 67-406): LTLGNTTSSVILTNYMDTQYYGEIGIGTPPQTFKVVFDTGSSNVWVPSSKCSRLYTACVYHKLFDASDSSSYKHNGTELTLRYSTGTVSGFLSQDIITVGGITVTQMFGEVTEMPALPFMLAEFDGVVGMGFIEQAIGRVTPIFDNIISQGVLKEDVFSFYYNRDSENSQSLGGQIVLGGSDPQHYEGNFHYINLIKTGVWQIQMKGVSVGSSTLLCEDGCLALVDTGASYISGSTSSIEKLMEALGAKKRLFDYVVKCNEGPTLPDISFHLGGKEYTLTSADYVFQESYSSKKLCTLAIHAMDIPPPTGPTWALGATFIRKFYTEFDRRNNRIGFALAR
# Assay: In vitro inhibition of human renal renin (angiotensin I formation measured by radioimmunoassay)
# Type: biochemical
# Settings: human renal renin with human renin substrate (angiotensinogen), 37° C., pH 6.0
row,pIC50,SMILES
1,8.30,"CCOC(=O)NC1(C(=O)N[C@@H](Cc2c[nH]cn2)C(=O)N[C@@H](CC2CCCCC2)[C@@H](O)[C@@H](O)CC(C)C)CCc2ccccc2C1 (stereo partly drawn) [Example 10, EtOC-(R,S)-ATCA-His Amide of 2(S)-Amino-1-cyclohexyl-3(R),4(S)-dihydroxy-6-methylheptane]"
2,6.52,"CC(C)C[C@H](O)[C@H](O)[C@H](CC1CCCCC1)NC(=O)[C@H](Cc1c[nH]cn1)NC(=O)C1(N)Cc2ccccc2C1 [Example 7, AICA-His Amide of 2(S)-Amino-1-cyclohexyl-3(R),4(S)-dihydroxy-6-methylheptane]"
3,7.60,"CC(C)C[C@H](O)[C@H](O)[C@H](CC1CCCCC1)NC(=O)[C@H](Cc1c[nH]cn1)NC(=O)C(N)(Cc1ccccc1)Cc1ccccc1 [Example 21, ADBA-His Amide of 2(S)-Amino-1-cyclohexyl-3(R),4(S)-dihydroxy-6-methylheptane]"
4,7.82,"CCOC(=O)NC1(C(=O)N[C@@H](Cc2c[nH]cn2)C(=O)N[C@@H](CC2CCCCC2)[C@@H](O)[C@@H](O)CC(C)C)Cc2ccccc2C1 [Example 5, EtOC-AICA-His Amide of 2(S)-Amino-1-cyclohexyl-3(R),4(S)-dihydroxy-6-methylheptane]"
5,7.00,"CC(C)C[C@H](O)[C@H](O)[C@H](CC1CCCCC1)NC(=O)[C@H](Cc1c[nH]cn1)NC(=O)C1Cc2ccccc2C(=O)N1 (stereo partly drawn) [Example 15, OTIC-His Amide of 2(S)-Amino-1-cyclohexyl-3(R),4(S)-dihydroxy-6-methylheptane]"
6,8.05,"CC(=O)N[C@@](C)(Cc1ccccc1)C(=O)N[C@@H](Cc1c[nH]cn1)C(=O)N[C@@H](CC1CCCCC1)[C@@H](O)[C@@H](O)CC(C)C [Example 19, Acetyl-AMPA-His Amide of 2(S)-Amino-1-cyclohexyl-3(R),4(S)-dihydroxy-6-methylheptane]"
7,8.00,"CC(C)C[C@H](O)[C@H](O)[C@H](CC1CCCCC1)NC(=O)[C@H](Cc1c[nH]cn1)NC(=O)[C@@](C)(N)Cc1ccccc1 [Example 17, AMPA-His Amide of 2(S)-Amino-1-cyclohexyl-3(R),4(S)-dihydroxy-6-methylheptane]"
8,8.00,"CCOC(=O)N1Cc2ccccc2CC1C(=O)N[C@@H](Cc1c[nH]cn1)C(=O)N[C@@H](CC1CCCCC1)[C@@H](O)[C@@H](O)CC(C)C (stereo partly drawn) [Example 13, EtOC-TIC-His Amide of 2(S)-Amino-1-cyclohexyl-3(R),4(S)-dihydroxy-6-methylheptane]"
